Structures can show the parent of a compound that is named as a salt.
SMILES | melting point
O=C(CC1CCCCC1)Nc1c(Cl)ccc2nc(CC3CCNCC3)ccc12 (as salt: hydrochloride) | 170 to 175 °C
CN1CCN(c2ccc3c(NC(=O)CC4CCCCC4)c(Cl)ccc3n2)CC1 (as salt: hydrochloride) | 270 °C (dec.)
CCNCCCc1ccc2c(NC(=O)CC3CCCCC3)c(Cl)ccc2n1 (as salt: hydrochloride) | 152 to 155 °C
O=C(CC1CCCCC1)Nc1c(Cl)ccc2nc(N3CCNCC3)ccc12 (as salt: hydrochloride) | > 250 °C
CCCCNCCCc1ccc2c(NC(=O)CC3CCCCC3)c(Cl)ccc2n1 (as salt: hydrochloride) | 219 to 221 °C
CNCCCN(C)c1ccc2c(NC(=O)C3(C4CCCCC4)CC3)c(Cl)ccc2n1 (as salt: hydrochloride) | 215 to 218 °C
Cc1ccc2c(C(=O)NCC3CCCCC3)c(Cl)ccc2n1 (as salt: hydrochloride) | 210 to 213 °C
O=C(NCC1CCCCC1)c1c(Cl)ccc2nc(N3CCNCC3)ccc12 (as salt: hydrochloride) | 305 to 306 °C
CNCCCN(C)c1ccc2c(NC(=O)CC3CCC(C(F)(F)F)CC3)c(Cl)ccc2n1 (stereo not shown) (as salt: hydrochloride) | 250 °C (dec.)
CNCCCN(C)c1ccc2c(NC(=O)CC3CCCCC3)c(Cl)ccc2n1 (as salt: hydrochloride) [Example 3, N-[6-Chloro-2-[methyl[3-(methylamino)propyl]amino]-5-quinolinyl]-cyclohexaneacetamide, Dihydrochloride] | 231 to 233 °C
O=C(O)CN1CCN(c2ccc3c(NC(=O)CC4CCCCC4)c(Cl)ccc3n2)CC1 (as salt: salt) | 320 to 326 °C
O=C(CC1CCCCC1)Nc1c(Cl)ccc2nc(CCCc3nnn[nH]3)ccc12 (as salt: trifluoroacetate) | 140 to 145 °C
O=C(NCC1CCCCC1)c1c(Cl)ccc2nc(N3CCC[C@H]3C(=O)O)ccc12 (as salt: trifluoroacetate) | 168 to 170 °C
O=C(O)CC1CCN(c2ccc3c(C(=O)NCC4CCCCC4)c(Cl)ccc3n2)CC1 (as salt: trifluoroacetate) | 79 to 83 °C
O=C(CC1CCCCC1)Nc1c(Cl)ccc2nc(NC[C@@H](O)CO)ccc12 [Example 6, N-[6-Chloro-2-[[(2R)-2,3-dihydroxypropyl]amino]-5-quinolinyl]-cyclohexaneacetamide] | 155 to 159 °C
O=C(O)CCCNc1ccc2c(NC(=O)CC3CCCCC3)c(Cl)ccc2n1 [Example 7, 4-[[6-Chlor-5-[(cyclohexylacetyl)amino]-2-quinolinyl]amino]-butanoic Acid] | 248 to 250 °C
O=C(CC1CCC(C(F)(F)F)CC1)Nc1c(Cl)ccc2nc(N3CCNCC3)ccc12 (stereo not shown) [Example 9, N-[6-Chloro-2-(1-piperazinyl)-5-quinolinyl]-4-(trifluoromethyl)-cyclohexaneacetamide] | 186 to 190 °C
O=C(CC1CCCCC1)Nc1c(Cl)ccc2nc(N3CCCNCC3)ccc12 [Example 10, N-[6-Chlor-2-(hexahydro-1H-1,4-diazepin-1-yl)-5-quinolinyl]-cyclohexaneacetamide] | 186 to 188 °C

Further lines, results first:

melting point | SMILES
120 °C (dec.) | O=C(CC1CCCCC1)Nc1c(Cl)ccc2nc(N3C[C@@H]4C[C@H]3CN4)ccc12 (as salt: acetate) [Example 13, N-[6-Chloro-2-[(1S,4S)-2,5-diazabicyclo[2.2.1]hept-2-yl]-5-quinolinyl]-cyclohexaneacetamide, Acetate]
154 to 155 °C | Cc1ccc2nc(N3CC[C@H](N)C3)ccc2c1C(=O)NCC1CCCCC1 (as salt: acetate) [Example 58, 2-[(3S)-3-Amino-1-pyrrolidinyl]-N-(cyclohexylmethyl)-6-methyl-5-quinolinecarboxamide, Acetate]
185 to 190 °C | O=C(O)CN1CCN(c2ccc3c(C(=O)NCC4CCCCC4)c(Cl)ccc3n2)CC1 (as salt: acetate) [Example 73, 4-[6-Chloro-5-[[(cyclohexylmethyl)amino]carbonyl]-2-quinolinyl]-1-piperazineacetic acid, Acetate]
193 to 198 °C | O=C(CC1CCCCC1)Nc1c(Cl)ccc2nc(N[C@@H]3CCNC3)ccc12 (as salt: hydrochloride) [Example 14, N-[6-Chloro-2-[(3R)-3-pyrrlidinylamino]-5-quinolinyl]-cyclohexaneacetamide, Dihydrochloride]
231 to 234 °C | CCNCCCc1ccc2c(NC(=O)CC3CCCCC3)c(C)ccc2n1 (as salt: hydrochloride) [Example 15, N-[2-[3-(Ethylamino)propyl]-6-methyl-5-quinolinyl]-cyclohexaneacetamide, Dihydrochloride]
238 to 240 °C | O=C(CC1CCCCC1)Nc1c(Cl)ccc2nc(NCCNCCO)ccc12 (as salt: hydrochloride) [Example 17, N-[6-Chloro-2-[[2-[(2-hydroxyethyl)amino]ethyl]amino]-5-quinolinyl]-cyclohexaneacetamide, Dihydrochloride]
211 to 220 °C | O=C(NCC1CCCCC1)c1c(Cl)ccc2nc(N3CC[C@H](NCCO)C3)ccc12 (as salt: hydrochloride) [Example 50, 6-Chloro-N-(cyclohexylmethyl)-2-[(3S)-3-[(2-hydroxyethyl)amino]-1-pyrrolidinyl]-5-quinolinecarboxamide, Hydrochloride]
320 to 324 °C | O=C(NCC1CCCCC1)c1c(Cl)ccc2nc(N3CCC(C(=O)O)CC3)ccc12 (as salt: sodium) [Example 74, 1-[6-Chloro-5-[[(cyclohexylmethyl)amino]carbonyl]-2-quinolinyl]-4-piperidinecarboxylic Acid, Sodium Salt]
170 to 173 °C | O=C(CC1CCCCC1)Nc1c(Cl)ccc2nc(N3CCC[C@@H]3C(=O)O)ccc12 (as salt: trifluoroacetate) [Example 65, 1-[6-Chloro-5-[(cyclohexylacetyl)amino]-2-quinolinyl]-D-proline, Trifluoroacetate]
250 to 252 °C | C[C@@H]1CN(c2ccc3c(NC(=O)CC4CCCCC4)c(Cl)ccc3n2)C[C@H](C)N1 [Example 11]
183 to 184 °C | O=C(CC1CCCCC1)Nc1cccc2ncccc12 [Example 18, N-5-Quinolinyl-cyclohexaneacetamide]
133 to 135 °C | CC1(CC(=O)Nc2cccc3ncccc23)CCCCC1 [Example 19, 1-Methyl-N-5-quinolinyl-cyclohexaneacetamide]
135 to 138 °C | O=C(CCC1CCCC1)Nc1cccc2ncccc12 [Example 21, N-5-Quinolinyl-cyclopentanepropanamide]
159 to 163 °C | O=C(CC1CCCCC1)Nc1c(Cl)ccc2nc(CCCNCCCO)ccc12 [Example 22, N-[6-Chloro-2-[3-[(3-hydroxypropyl)amino]propyl]-5-quinolinyl]-cyclohexaneacetamide]
121 to 130 °C | NCCCc1ccc2c(NC(=O)CC3CCCCC3)c(Cl)ccc2n1 [Example 23, N-[2-(3-Aminopropyl)-6-chloro-5-quinolinyl]-cyclohexaneacetamide]
219 °C | O=C(Nc1c(Cl)ccc2nc(N3CCNCC3)ccc12)C1(C2CCCCC2)CC1 [Example 27, N-[6-Chloro-2-(1-piperazinyl)-5-quinolinyl]-1-cyclohexyl-cyclopropanecarboxamide]

From patent US7408065B2, “P2X7 receptor antagonists and their use” (AstraZeneca AB, priority 2003, dated 2008)
